Experiments:
MARC-145 cells = experiment: Virus titration of treated PRRSV on MARC-145 cells (inactivation curve); assay type: cell-based; conditions: four hours at 37° C.
Experimental: Formaldehyde was then removed by ultracentrifugation. Inactivation with glutaraldehyde was performed with purified virus (10^7 TCID50/ml) that was incubated for four hours at 37° C. with different concentrations (0-0.005-0.05-0.5-5 or 50 ng/ml) glutaraldehyde (Sigma) (Darnell et al., 2004). Glutaraldehyde was removed by ultracentrifugation afterwards. For inactivation with 2,2-dithiodipyridine (AT-2), purified virus (10^7 TCID50/ml) was incubated for four hours at 37° C. with different concentrations (0-10-30-100-300 or 1000 μM) AT-2 (Aldrich) (Rossio et al., 1998; Chertova et al., 2003). Afterwards, AT-2 was removed by ultracentrifugation. For inactivation by changing the pH, the pH was adjusted with HCl of 32% to pH2 and with NaOH to pH12. Purified virus (10^7 TCID50/ml) was incubated for several hours at a pH2 or at a pH12. After incubation, the pH was neutralized (Darnell et al., 2004). For inactivation of PRRSV at a certain temperature, purified virus (10^7 TCID50/ml) was incubated for several (0-6-12-24-48 or 72) hours at 37° C. […]
Virus titration was performed in a 96-well plate with a confluent monolayer of MARC-145 cells. […] After three to five days incubation at 37° C., the occurrence of cytopathic effect (CPE) was investigated and the 50% tissue culture infective dose (TCID50) could be calculated. […]

[1] = system: CHO^Sn-CD163 cell line IC5; experiment: Binding, internalization, fusion and infection in CHO^Sn-CD163 cell line IC5; assay type: cell-based, Chinese Hamster
Experimental: (§1) Macrophages or CHO cells (including CHO^Sn and CHO^Sn-CD163 cells, i.e., the CHO cells expressing sialoadhesin and CD163 deposited on May 14, 2008 at the Belgian Coordinated Collections of Microorganisms as CHO^Sn/CD163 IC5; CHO^Sn/CD163 ID9 and CHO^Sn/CD163 IF3 with the respective accession numbers (LMBP 6677CB, LMBP 6678CB, and […]) were incubated for one hour at 37° C. with the treated PRRSV and fixed with methanol. Then the capsid protein was stained with a primary antibody P3/27 and a secondary antibody goat-anti-mouse FITC. Confocal analysis was performed to determine the amount of internalized PRRSV.
(§2) Macrophages, CHO^Sn or CHO^Sn-CD163 cells were seeded at 200,000 cells/ml in a 24-well plate with insert. After two days, the cells were inoculated with wild-type Lelystad Virus (LV) grown on MARC-145 cells and inactivated LV grown on MARC-145 cells. The cells were fixed with methanol after one hour at 4° C. (binding; 0 hpi), one hour at 37° C. (internalization), five hours at 37° C. […] (infection) and 24 hours at 37° C. (infection). The virus was stained with a primary antibody P3/27 (anti-capsid) and a secondary antibody goat-anti-mouse FITC. The virus particles were counted with a confocal microscope.

[2] = system: CHO^Sn-CD163 cell line IF3; experiment: Binding, internalization, fusion and infection in CHO^Sn-CD163 cell line IF3; assay type: cell-based, Chinese Hamster
Experimental: as §1, §2

[3] = system: CHO^Sn-CD163 cell line ID9; experiment: Binding, internalization, fusion and infection in CHO^Sn-CD163 cell line ID9; assay type: cell-based, Chinese Hamster
Experimental: as §1, §2

macrophages = experiment: Attachment, internalization, fusion and replication of inactivated PRRSV in macrophages by immunostaining and confocal microscopy; assay type: cell-based, porcine; conditions: 1 hpi
Text: The European strain Lelystad virus (LV) of PRRSV (Wensvoort et al., 1991) grown on MARC-145 cells (5th passage) was used for inactivation. MARC-145 cells cultivated in minimum Eagle's medium (MEM) with 5% FCS, 1% glutamine, 1% penicillin-streptomycin and 1% kanamycin were used for LV production and titration of inactivated virus. Attachment and internalization of the inactivated virus was investigated in macrophages that where cultivated in medium containing RPMI 1640, 10% FCS, 1% penicillin-streptomycin, 1% kanamycin, 1% gentamycin, 1% tylosin, 1% glutamine, 1% nonessential amino acids and 1% sodium pyruvate for 24 hours before inoculation. When CHO cells were used, the cells were cultivated in F12 with 10% FCS, 1% penicillin-streptomycin, 1% kanamycin, 1% glutamine, and 1% sodium pyruvate and were transfected with sialoadhesin. As the macrophages, the CHO cells were also cultivated 24 hours before inoculation. […]
Macrophages, CHO^Sn or CHO^Sn-CD163 cells were seeded at 200,000 cells/ml in a 24-well plate with insert. […] The virus particles were counted with a confocal microscope.

SMILES	infectious virus detected by titration (MARC-145 cells; lowest concentration of 10 pg/ml formaldehyde)	Binding (particles counted at 0 hpi) [1] [particles]	Fusion (particles counted at 5 hpi) [1] [particles]	Infection 12 hpi (%) [1] [%]	Infection 24 hpi (%) [1] [%]	Internalization (particles counted at 1 hpi) [1] [particles]	Binding (particles counted at 0 hpi) [2] [particles]	Fusion (particles counted at 5 hpi) [2] [particles]	Infection 12 hpi (%) [2] [%]	Infection 24 hpi (%) [2] [%]	Internalization (particles counted at 1 hpi) [2] [particles]	Binding (particles counted at 0 hpi) [3] [particles]	Fusion (particles counted at 5 hpi) [3] [particles]	Infection 12 hpi (%) [3] [%]	Infection 24 hpi (%) [3] [%]	Internalization (particles counted at 1 hpi) [3] [particles]	internalization in macrophages (macrophages; 0.1 ng/ml formaldehyde)	infectious virus detected by titration (MARC-145 cells; 0.5 ng/ml glutaraldehyde or more)	internalization in macrophages (macrophages; 50 ng/ml glutaraldehyde)
C=O [formaldehyde]	no infectious virus detected	0	0	0	0	0	1	1	0	0	0	2	0	0	0	0	no longer able to internalize	–	–
O=CCCCC=O [glutaraldehyde]	–	1	0	0	0	0	2	1	0	0	0	0	0	0	0	0	–	no infectious virus could be detected	no longer able to internalize

Source: patent US9545438B2, “Determination of antigenicity of an inactivated virus” (Universiteit Gent, priority 2008, dated 2017)
